Results on 14 compounds are retold here after US6706880B2 (Research Triangle Institute, priority 1990, dated 2004).

Assay [1] addresses dopamine transporter (UniProt P23977). The assay is classed as binding. An excerpt:
(§1) Illustrative in vitro assays for binding are described in Boja et al Ann. NY Acad. Sci. 654:282-291 (1992), which is incorporated herein by reference in its entirety. […] Alternatively, the compounds may be analyzed by their ability to inhibit reuptake of a labelled neurotransmitter in a sample, in particular, in synaptosomes.

Assay [2] has as its system dopamine transporter. Type of assay: binding. Conditions: ratio of IC50 values, Table II.
Text: as §1

The target of the next assay is T1, serotonin transporter (Rattus norvegicus, UniProt P31652).
T1 construct: from tissue
T1 sequence (P31652 whole entry): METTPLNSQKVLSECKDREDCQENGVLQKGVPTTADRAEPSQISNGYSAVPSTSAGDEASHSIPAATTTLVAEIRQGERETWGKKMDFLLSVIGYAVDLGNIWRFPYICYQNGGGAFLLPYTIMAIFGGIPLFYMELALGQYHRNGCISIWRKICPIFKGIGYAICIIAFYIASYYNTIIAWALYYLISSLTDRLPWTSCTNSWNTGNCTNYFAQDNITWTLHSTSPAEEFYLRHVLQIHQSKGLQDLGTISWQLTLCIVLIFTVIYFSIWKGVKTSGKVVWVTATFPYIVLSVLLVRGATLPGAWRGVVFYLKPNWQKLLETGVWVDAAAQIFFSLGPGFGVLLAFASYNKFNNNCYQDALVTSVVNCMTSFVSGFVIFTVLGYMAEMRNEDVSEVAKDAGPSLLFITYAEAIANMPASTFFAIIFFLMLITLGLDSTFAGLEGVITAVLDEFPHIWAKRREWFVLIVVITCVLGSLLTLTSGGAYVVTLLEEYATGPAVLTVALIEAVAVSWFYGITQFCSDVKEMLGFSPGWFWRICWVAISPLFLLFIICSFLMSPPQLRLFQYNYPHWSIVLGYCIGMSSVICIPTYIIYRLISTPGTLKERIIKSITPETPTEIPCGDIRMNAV
The assay is described as follows: Inhibition of [3H]paroxetine radioligand binding at the serotonin transporter.
Text: as §1

In assay [3] the target is norepinephrine transporter (UniProt Q9WTR4). In words: Inhibition of [3H]nisoxetine radioligand binding at the norepinephrine transporter.
Text: as §1

Where [4] appears, read: read-out: DA IC50 for inhibition of radioligand binding, DA=[3H]WIN 35,428.
Setting [5] is: read-out: IC50 DA [3H]-WIN 35,428, Table II.
Setting [6] is: 5-HT=[3H] paroxetine, read-out: 5-HT IC50 for inhibition of radioligand binding.
Where [7] appears, read: Table II, read-out: IC50 5-HT [3H]-paroxatine (converted).
[8] abbreviates: read-out: IC50 NE [3H]-nisoxetine, Table II.
Setting [9] is: read-out: NEN IC50 for inhibition of radioligand binding, NEN=[3H] nisoxetine.
The mark [10] stands for this setting: 5-HT IC50 for inhibition of radioligand binding, 5-HT=[3H] paroxetine.
Setting [11] is: IC50 5-HT [3H]-paroxatine, Table II.

Structures can show the parent of a compound that is named as a salt. Where two headings read alike, the source gives them in different places.

For `Cc1ccc(C2CC3CCC(C2c2cc(C)no2)N3C)cc1.Cl` (stereo not drawn) [RTI-4229-171, 3β-(4-Methylphenyl)-2P-(3-methylisoxazol-5-yl)tropane Hydrochloride], the IC50 at dopamine transporter [1] (setting [4]) is 0.93 nM; on dopamine transporter [1] (setting [5]) it was 0.93 nM; on serotonin transporter (setting [6]) it was 3820 nM; on serotonin transporter (setting [7]), 3820 nM; in assay [3] (setting [8]) it was 254 nM; in assay [3] (setting [9]), 254 nM. In addition, the “5-HT/DA Ratio” value in the assay with dopamine transporter [2] came out at 4105. In the assay on dopamine transporter [2], the “NE/DA Ratio” value is reported as 273.

On to `Cc1ccc([C@H]2C[C@@H]3CC[C@H]([C@H]2c2cc(-c4ccccc4)no2)N3C)cc1` [RTI-4229-176, 3β-(4-Methylphenyl)-2β-(3-phenylisoxazol-5-yl)tropane Hydrochloride], for which the half-maximal inhibitory concentration (IC50) on dopamine transporter [1] (setting [4]) was 1.58 nM; at dopamine transporter [1] (setting [5]), 1.58 nM; at serotonin transporter (setting [10]) it was 5110 nM; on serotonin transporter (setting [11]), 5110 nM; in assay [3] (setting [8]), 398 nM; in assay [3] (setting [9]), 398 nM. The “5-HT/DA Ratio” value in the assay with dopamine transporter [2] is 3234. In addition, the “NE/DA Ratio” value with dopamine transporter [2] came out at 251.

Turning to `CN1[C@H]2CC[C@@H]1[C@@H](c1cc(-c3ccccc3)no1)[C@@H](c1ccc(Cl)cc1)C2` [RTI-4229-177, 3β-(4-Chlorophenyl)-2β-(3-phenylisoxazol-5-yl)tropane Hydrochloride], the IC50 at dopamine transporter [1] (setting [4]) turned out to be 1.28 nM; on dopamine transporter [1] (setting [5]) it was 1.28 ± 0.18 nM; at serotonin transporter (setting [10]), 2420 nM; at serotonin transporter (setting [11]), 2420 ± 136 nM; in assay [3] (setting [8]) it was 504 ± 29 nM; in assay [3] (setting [9]) it was 504 nM. In the assay with dopamine transporter [2], the “5-HT/DA Ratio” value is listed as 1889. Besides, the “NE/DA Ratio” value in the assay on dopamine transporter [2] was determined as 393.

With `Cc1ccc([C@H]2C[C@@H]3CC[C@H]([C@H]2c2ncc(-c4ccccc4)o2)N3C)cc1` [RTI-4229-178, 3β-(4-Methylphenyl)-2β-(5-phenyl-oxazol-2-yl)-tropane Tartrate], the concentration for half-maximal inhibition (IC50) is 35.4 nM at dopamine transporter [1] (setting [4]); 35.4 nM on dopamine transporter [1] (setting [5]); 1700 nM on serotonin transporter (setting [10]); 1700 nM on serotonin transporter (setting [11]); 677 nM in assay [3] (setting [8]); 677 nM in assay [3] (setting [9]). In addition, in the assay on dopamine transporter [2], the “5-HT/DA Ratio” value was found to be 48. Also, the “NE/DA Ratio” value in the assay on dopamine transporter [2] was 19.

In the case of `Cc1cc([C@H]2[C@@H](c3ccc(I)cc3)C[C@@H]3CC[C@H]2N3C)on1` [RTI-4229-180, 3β-(4-Iodophenyl)-2β-(3-methylisoxazol-5-yl)tropane Hydrochloride], the concentration for half-maximal inhibition (IC50) at dopamine transporter [1] (setting [5]) was 0.73 nM; on serotonin transporter (setting [11]), 36.4 nM; in assay [3] (setting [8]) it was 67.9 nM; in assay [3] (setting [9]), 67.9 nM. In the assay with dopamine transporter [2], the “NE/DA Ratio” value came out at 93.

Regarding `CN1[C@H]2CC[C@@H]1[C@@H](c1cc(-c3ccccc3)no1)[C@@H](c1ccc(I)cc1)C2` [RTI-4229-181, 3β-(4-Iodophenyl)-2β-(3-phenylisoxazol-5-yl)tropane Hydrochloride], the IC50 at dopamine transporter [1] (setting [4]) is 2.57 nM; on dopamine transporter [1] (setting [5]), 2.57 nM; on serotonin transporter (setting [10]) it was 100 nM; on serotonin transporter (setting [11]), 100 nM; in assay [3] (setting [8]), 868 nM; in assay [3] (setting [9]) it was 868 nM. For the same compound, the “5-HT/DA Ratio” value in the assay on dopamine transporter [2] is 39. For the same compound, the “NE/DA Ratio” value in the assay on dopamine transporter [2] is reported as 337.

As for `CN1[C@H]2CC[C@@H]1[C@@H](c1nnc(-c3ccccc3)o1)[C@@H](c1ccc(Cl)cc1)C2` [RTI-4229-188, 3β-(4-Chlorophenyl)-2β-(5-phenyl-1,3,4-oxadiazol-2-yl)-tropane Hydrochloride], the half-inhibitory concentration (IC50) came to 12.6 nM on dopamine transporter [1] (setting [4]); 12.6 ± 1.03 nM on dopamine transporter [1] (setting [5]); 3300 nM on serotonin transporter (setting [6]); 3300 ± 196 nM at serotonin transporter (setting [11]); 929 ± 88 nM in assay [3] (setting [8]); 929 nM in assay [3] (setting [9]). Further, the “5-HT/DA Ratio” value in the assay on dopamine transporter [2] is on record as 262. Besides, in the assay on dopamine transporter [2], the “NE/DA Ratio” value worked out at 73.

In the case of `CN1[C@H]2CC[C@@H]1[C@@H](c1ncc(-c3ccccc3)o1)[C@@H](c1ccc(Cl)cc1)C2` [RTI-4229-189, 3β-(4-Chlorophenyl)-2β-(5-phenyl-oxazol-2-yl)-tropane Tartrate], the IC50 at dopamine transporter [1] (setting [4]) was 19.7 nM; on dopamine transporter [1] (setting [5]), 19.7 ± 1.98 nM; on serotonin transporter (setting [6]), 1120 nM; at serotonin transporter (setting [7]), 1120 ± 107 nM; in assay [3] (setting [8]), 496 ± 42 nM; in assay [3] (setting [9]) it was 496 nM. In the assay with dopamine transporter [2], the “5-HT/DA Ratio” value was found to be 57. Moreover, the “NE/DA Ratio” value with dopamine transporter [2] is 25.

In the case of `Cc1ccc([C@H]2C[C@@H]3CC[C@H]([C@H]2c2nnc(C)o2)N3C)cc1` [RTI-4229-194, 3β-(4-Methylphenyl)-2β-(5-methyl-1,3,4-oxadiazol-2-yl)-tropane Hydrochloride], the concentration for half-maximal inhibition (IC50) was determined as 4.45 nM at dopamine transporter [1] (setting [4]); 4.45 ± 0.12 nM at dopamine transporter [1] (setting [5]); 4880 nM on serotonin transporter (setting [10]); 4880 ± 155 nM at serotonin transporter (setting [11]); 253 ± 19 nM in assay [3] (setting [8]); 253 nM in assay [3] (setting [9]). Also, the “5-HT/DA Ratio” value in the assay on dopamine transporter [2] is 1098. Moreover, the “NE/DA Ratio” value in the assay with dopamine transporter [2] was 57.

For the compound `Cc1ccc([C@H]2C[C@@H]3CC[C@H]([C@H]2c2nnc(-c4ccccc4)o2)N3C)cc1` [RTI-4229-195, 3β-(4-Methylphenyl)-2β-(5-phenyl-1,3,4-oxadiazol-2-yl)-tropane Hydrochloride], the concentration for half-maximal inhibition (IC50) is 47.5 nM at dopamine transporter [1] (setting [4]); 47.5 nM at dopamine transporter [1] (setting [5]); 22300 nM on serotonin transporter (setting [10]); 23300 nM on serotonin transporter (setting [11]); 1310 nM in assay [3] (setting [8]); 1310 nM in assay [3] (setting [9]). In the assay on dopamine transporter [2], the “5-HT/DA Ratio” value was 491. The “NE/DA Ratio” value with dopamine transporter [2] was found to be 28.

On to `Cc1ccc([C@H]2C[C@@H]3CC[C@H]([C@H]2c2nnc(-c4ccccc4)s2)N3C)cc1` [RTI-4229-199, 3β-(4-Methylphenyl)-2β-(5-phenyl-1,3,4-thiadiazol-2-yl)-tropane Hydrochloride], for which the half-maximal inhibitory concentration (IC50) was 35.9 nM on dopamine transporter [1] (setting [4]); 35.9 nM at dopamine transporter [1] (setting [5]); 51500 nM on serotonin transporter (setting [10]); 51500 nM on serotonin transporter (setting [11]); 24300 nM in assay [3] (setting [8]). In addition, in the assay with dopamine transporter [2], the “5-HT/DA Ratio” value came to 1434. The “NE/DA Ratio” value in the assay with dopamine transporter [2] was 677.

Take `CN1C2CCC1C(c1nnc(-c3ccccc3)s1)C(c1ccc(Cl)cc1)C2` (stereo not drawn) [RTI-4229-200, 3β-(4-Chlorophenyl)-2β-(S-phenyl-1,3,4-thiadiazol-2-yl)-tropane Hydrochloride]: the half-maximal inhibitory concentration (IC50) at dopamine transporter [1] (setting [4]) came out at 15.3 nM; on dopamine transporter [1] (setting [5]), 15.3 ± 2.43 nM; at serotonin transporter (setting [10]), 18400 nM; on serotonin transporter (setting [11]), 18400 nM; in assay [3] (setting [8]), 4140 ± 466 nM; in assay [3] (setting [9]) it was 4140 nM. Also, the “5-HT/DA Ratio” value with dopamine transporter [2] was 1203. For the same compound, the “NE/DA Ratio” value in the assay with dopamine transporter [2] is given as 271.

`CN1[C@H]2CC[C@@H]1[C@@H](c1nc3ccccc3s1)[C@@H](c1ccc(Cl)cc1)C2` [RTI-4229-202, 3β-(4-Chlorophenyl)-2β-(benzothiazol-2-yl)-tropane Hydrochloride]: the IC50 at dopamine transporter [1] (setting [4]) was found to be 1.37 nM; on dopamine transporter [1] (setting [5]), 1.37 ± 0.14 nM; on serotonin transporter (setting [10]), 1120 nM; on serotonin transporter (setting [11]), 1120 ± 120 nM; in assay [3] (setting [8]) it was 403 ± 30 nM; in assay [3] (setting [9]) it was 403 nM. Besides, the “5-HT/DA Ratio” value with dopamine transporter [2] amounted to 817. For the same compound, in the assay with dopamine transporter [2], the “NE/DA Ratio” value is recorded as 294.

With `CN1[C@H]2CC[C@@H]1[C@@H](c1ncc(-c3ccccc3)s1)[C@@H](c1ccc(Cl)cc1)C2` [RTI-4229-219, 3β-(4-Chlorophenyl)-2β-(5-phenylthiazol-2-yl)-tropane Hydrochloride], the IC50 at dopamine transporter [1] (setting [4]) is 5.71 nM; at serotonin transporter (setting [10]), 10300 nM; on serotonin transporter (setting [11]), 10300 nM; in assay [3] (setting [9]) it was 8560 nM. Also, the “5-HT/DA Ratio” value with dopamine transporter [2] is 1811.
